What was measured:
[1] = system: E2F; assay: E2F reporter assay in vitro (firefly luciferase normalized to actin); type: cell-based, human; conditions: 1205Lu reporter cells; palbociclib (0.5 μM), 48 hours
Source text: CR=complete response. […] CR=complete response.
Tumor cells were also transduced with tdTomato fluorescent protein to selectively monitor tumor growth. […] In FIG. 8 1205Lu reporter cells were transfected with silencing RNA to control sequence, CDK4, CDK6 or both CDK4 and CDK6. […] Firefly luciferase activity was normalized to actin levels in each sample.

[2] = system: 1205Lu xenografts; assay: 1205Lu reporter xenograft model, tumor volume / response; type: in vivo, immunodeficient nude mice
Source text: (§1) FIG. 7 A depicts the E2F reporter system for measuring the efficacy of CDK4/6 and MEK inhibitors in vivo. Firefly luciferase is expressed under the control of E2F response elements. […] CR=complete response. FIG. 7D depicts analysis of E2F reporter activity normalized to tdTomato fluorescent protein activity in 1205Lu xenografts. […] CR=complete response. FIG. 7G depicts representative images of 1205Lu xenografts taken from mice fed vehicle, MEK inhibitor, CDK4/6 inhibitor and combo-laced chow analyzed for Ki67. FIG. 7H depicts quantitation of Ki67 positive cells (% of total cells) taken from mice fed vehicle (n=2), MEK inhibitor (n=4), CDK4/6 inhibitor (n=4) and combo laced chow (n=4).
(§2) Indeed, in a performed xenograft mouse model, 1205Lu reporter cells were intradermally injected into immunodeficient nude mice.
(§3) Mice were retreated with combination regimen at day 67. FIG. 9B depicts modulation of E2F activity in combination treated mice following drug removal and retreatment. […] FIG. 9C depicts RPPA analysis on resistant tumors.

[3] = system: E2F; assay: E2F reporter activity in 1205Lu xenografts (luciferase normalized to tdTomato); type: in vivo, immunodeficient nude mice; conditions: drug-laced chow
Source text: as §1, §2, §3

Row | Structure (SMILES) | reduction in firefly luciferase activity normalized to actin levels [1] [%] | complete regressions ([2]; MEK inhibitor chow (mouse #6)) | tumor regrowth on treatment ([2]; by treatment day 44) | tumor volume, initial response ([2]; drug-laced chow) | E2F reporter activity in tumors on treatment [3]
1 | CC(=O)c1c(C)c2cnc(Nc3ccc(N4CCNCC4)cn3)nc2n(C2CCCC2)c1=O [palbociclib] | 60 | – | – | – | –
2 | O=C(NOC[C@H](O)CO)c1ccc(F)c(F)c1Nc1ccc(I)cc1F [PD0325901] | – | one complete regression | dramatic tumor regrowth | initially maintained tumor volumes at a static level | strong E2F reactivation

Reference: US11571483B2, “E2F reporter melanoma cells” (THOMAS JEFFERSON UNIVERSITY, priority 2015, dated 2023)
